Consider two sequences from US20070066526A1, “Method for reducing risk of and extent of injury due to stroke in hypertensive subjects” (priority 2005, published 2007).

For experiment [1], the system named is hypertensive Dahl salt-sensitive rats. The experiment is described as follows: Middle cerebral artery occlusion, infarct size by TTC staining in hypertensive Dahl rats. Type of experiment: in vivo, rat.
In experiment [2] the test system is δPKC. The note with it: normotensive animals, sustained delivery; cited from earlier work.
The subject of experiment [3] is Dahl salt-sensitive rats. Kind of experiment: Laser Doppler flowmetry of cerebral blood flow in hypertensive Dahl rats. The conditions noted are these: 11 weeks old, intraperitoneal injection 0.2 mg/kg, 25 min post-treatment vs baseline, mean±SEM.
Protocol: Six week old Dahl salt-sensitive rats were placed on an 8% high-salt diet to induce hypertension. Cerebral brain flow (CBF) was measured at 11 weeks, 4 weeks following high-salt diet onset. A burr hole was drilled 1 mm posterior and 6 mm lateral to bregma, corresponding to the ischemic territory. A laser Doppler transducer probe (Laserflo) was affixed above the cortex using a stereotaxic frame (Harvard Apparatus, MA), and a baseline CBF was established over a period of 20-30 minutes (1 minute intervals), Tat control peptide (n=5) or δV1-1-Tat peptide (n=15) was injected by intraperitoneal injection (0.2 mg/kg in 1 mL) and cerebral brain flow was monitored for an additional 20-30 minutes. Cerebral brain flow was also measured in the sham control animals (n=4).
Analysis of changes in cerebral brain flow was performed by comparing the baseline flow-rate at 20 minutes, to the flow-rate at 25 minutes post-treatment in all animals. Results were expressed as both a scattergram of percent flow changes in individual animals, and the mean±SEM flow in each group. Statistical analysis between Tat and δV1-1-Tat treatment groups was performed using an unpaired t-test.
In experiment [4] the target is T1, εPKC (Rattus norvegicus, UniProt P09216).
T1 sequence (P09216 1-737): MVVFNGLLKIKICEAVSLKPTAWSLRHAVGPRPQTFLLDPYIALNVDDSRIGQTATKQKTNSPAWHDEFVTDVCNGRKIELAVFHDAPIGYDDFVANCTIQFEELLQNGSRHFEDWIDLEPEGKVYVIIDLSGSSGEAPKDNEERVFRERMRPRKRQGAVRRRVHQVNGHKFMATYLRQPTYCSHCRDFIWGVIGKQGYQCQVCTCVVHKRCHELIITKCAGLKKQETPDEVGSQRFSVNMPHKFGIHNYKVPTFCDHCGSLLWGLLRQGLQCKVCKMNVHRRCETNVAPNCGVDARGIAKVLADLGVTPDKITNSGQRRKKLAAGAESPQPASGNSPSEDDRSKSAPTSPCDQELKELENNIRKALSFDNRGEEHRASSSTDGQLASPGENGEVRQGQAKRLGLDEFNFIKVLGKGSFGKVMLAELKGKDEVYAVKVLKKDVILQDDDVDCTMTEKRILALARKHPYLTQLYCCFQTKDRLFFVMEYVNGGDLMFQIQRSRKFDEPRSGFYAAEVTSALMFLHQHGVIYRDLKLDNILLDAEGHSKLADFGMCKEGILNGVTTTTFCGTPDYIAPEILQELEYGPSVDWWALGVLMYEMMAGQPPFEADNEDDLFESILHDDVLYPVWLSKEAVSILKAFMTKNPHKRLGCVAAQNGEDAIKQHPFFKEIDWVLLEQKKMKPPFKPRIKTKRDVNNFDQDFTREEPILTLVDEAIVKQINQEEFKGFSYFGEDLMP
Kind of experiment: Western blot of εPKC translocation in brain of Dahl hypertensive rats. The conditions noted are these: sustained subcutaneous pump delivery, same blot reprobed. On the technique in general: Immunoblotting shows a protein as a band on a membrane.

Experiment [5] deals with δPKC (Rattus norvegicus, UniProt P09215). Kind of experiment: Western blot of δPKC translocation (soluble to membrane fraction) in brain of Dahl hypertensive rats. The note with it: sustained subcutaneous pump delivery 4-6 weeks, n=3.
Sequence of δPKC (Rattus norvegicus, UniProt P09215) (P09215 whole entry): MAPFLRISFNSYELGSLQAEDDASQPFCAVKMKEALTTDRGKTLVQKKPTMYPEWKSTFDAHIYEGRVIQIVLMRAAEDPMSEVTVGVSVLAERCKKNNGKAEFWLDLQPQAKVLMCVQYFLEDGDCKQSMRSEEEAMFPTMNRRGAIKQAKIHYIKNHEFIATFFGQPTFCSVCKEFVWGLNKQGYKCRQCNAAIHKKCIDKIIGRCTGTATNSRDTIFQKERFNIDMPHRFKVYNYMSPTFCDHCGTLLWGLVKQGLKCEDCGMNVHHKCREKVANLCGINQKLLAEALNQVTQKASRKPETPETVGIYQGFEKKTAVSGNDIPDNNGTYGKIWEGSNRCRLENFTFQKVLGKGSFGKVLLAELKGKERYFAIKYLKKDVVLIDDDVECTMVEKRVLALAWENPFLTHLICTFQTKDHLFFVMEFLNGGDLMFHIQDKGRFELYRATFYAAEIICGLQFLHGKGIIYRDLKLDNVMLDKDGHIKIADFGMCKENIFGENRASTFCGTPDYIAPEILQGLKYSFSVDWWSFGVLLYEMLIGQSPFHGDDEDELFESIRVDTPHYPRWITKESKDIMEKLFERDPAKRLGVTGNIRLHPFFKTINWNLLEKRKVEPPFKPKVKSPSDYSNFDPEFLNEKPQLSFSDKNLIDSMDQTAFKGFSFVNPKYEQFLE
Protocol: Dahl rats were implanted with pumps for subcutaneous delivering δV1-1-Tat or Tat control peptide for 4-6 weeks. δPKC activity in brain samples was assessed by determining the translocation of the enzyme from the soluble, cytosolic fraction, to the membrane-bound fraction, a standard marker for PKC activation (Kraft, A. S. et al., Nature, 301:621-3 (1983)).
The density of the bands was measured to assess PKC translocation, as a measure of δPKC activation.
Brains from Dahl hypertensive rats that received δV1-1-Tat or Tat peptide delivery for 4 weeks, starting at 11 weeks of age, were quickly isolated and frozen. Tissue fractionation was performed to collect soluble (cytosolic) and particulate (membrane) fractions, as previously described (Johnson, J. A. et al., Life Sci., 57:1027-38(1995)). 5 μg of protein from each fraction was used forwestern blot analysis using a rabbit anti-phospho-serine 643 δPKC antibody (Santa Cruz Biotechnology; 1:500) followed with an anti-rabbit secondary antibody (Amersham). Density of δPKC bands was measured to assess translocation of PKC from the cytosol to membrane fractions, a measure of activation (Kraft, A. S. et al., Nature, 301:621-3 (1983)). Blots were then reprobed with a rabbit anti-δPKC antibody (Santa Cruz Biotechnology; 1:500), to assess translocation of the δPKC isozyme. Statistical analysis was performed using students t-test.

For the sequence “SFNSYELGSL (listed as Rattus norvegicus) [δV1-1]”, the “reduction of infarct size compared with Tat controls” value in experiment [1] (90 min MCA occlusion, 24 h reperfusion, chronic subcutaneous pump delivery, animals without hemorrhage) came out at 25%. Besides, the “infarct size (relative stroke area)” value in experiment [1] (90 min MCA occlusion, 24 h reperfusion, chronic subcutaneous pump delivery, animals without hemorrhage, n=6-7 per group) worked out at 30±4%. For the same sequence, the “δPKC activity in the brain” value in experiment [2] was “inhibits δPKC activity”. The “change in cerebral blood flow from baseline” value in experiment [3] came out at 12%.

Consider YGRKKRRQRRR [Tat], for which the “infarct size (relative stroke area)” value in experiment [1] (rat, in vivo, sc) was determined as 39±3%. In experiment [4], the “εPKC activation, percent translocation” value amounted to 46±5 % translocation. The “change in cerebral blood flow from baseline” value in experiment [3] is on record as −5±9%. The “δPKC activation, percent translocation” value in experiment [5] amounted to 49±1 % translocation.
